The target of one series is T1, human 5-HT2A receptor (Homo sapiens, UniProt P28223).
T1 construct: expressed in transfected cells; host or cells: CHO-K1 (membranes)
Nature of the series: Radioligand binding, [3H]-ketanserin, CHO-K1 membranes. The conditions noted are these: CHO-K1 cells, mean ± SEM, read-out: Serotonergic pKi 5-HT2A (converted). The method, then: (§1) Radioligand binding was performed on membranes from CHO-K1 cells stably transfected with the human 5-HT1A, 5-HT2A, 5-HT6, or 5-HT7 receptors. […] Binding experiments were conducted in 96-well microplates, and the reaction mix included the solution of the test compound, radioligand, and diluted membranes or the tissue suspension.
(§2) The reaction was terminated by rapid filtration through GF/B or GF/C filter mate presoaked with 0.3% polyethyleneimine for 30 min. Ten rapid washes with 200 µl 50 mM Tris buffer (4 °C, pH 7.4) were performed using an automated harvester system Harvester-96 MACH III FM (Tomtec). […] Radioactivity was counted in the MicroBeta2 scintillation counter (PerkinElmer) at approximately 30% efficiency. […] A single assay was performed with each compound concentrations in duplicate, and the whole assay was repeated in a three independent experiments.

A further series addresses T2, human 5-HT7 receptor (Homo sapiens, UniProt P34969).
T2 construct: expressed in transfected cells; host or cells: CHO-K1 (membranes)
Nature of the series: Radioligand binding, [3H]-5-CT, CHO-K1 membranes. The conditions noted are these: CHO-K1 cells, mean ± SEM, read-out: Serotonergic pKi 5-HT7 (converted). The method, then:
as §1, §2

Series [1] deals with corticosterone-treated mice. Nature of the series: Forced swim test in corticosterone-induced mouse model of depression. It is filed as in vivo. As to conditions: for Decrease of immobility in the forced swim test in corticosterone-treated mice: chronic (3 weeks). As for the experimental part: The experiment was performed on mice according to the method described by Porsolt et al. and as previously described. Mice were placed individually in glass cylinders (height 25 cm, diameter 10 cm) filled with water at 24 ± 1 °C to a depth of 10 cm and left there for 6 min. Following a 2 min habituation period, total time spent immobile was recorded during the next 4 min. The animal was considered as immobile when it remained floating passively in the water, making only small movements to keep its head above the water. The experiments were video-recorded and scored using elevenmaze.com software by a trained observer blind to the treatments.
(§3) Mice were injected with corticosterone (sc, 20 mg/kg) at random times during the light phase for 21 days. The dose and route of administration of corticosterone were based on our previous study. Control mice received saline containing 0.1% dimethyl sulfoxide (DMSO) and 0.1% Tween (sc). For the next 21 days, 30 min before the corticosterone injection, mice were injected with saline, HBK-10 (0.625 or 1.25 mg/kg), or fluoxetine (15 mg/kg) (ip). Twenty-four hours after the last injection, animals were tested in the forced swim test and locomotor activity test (Figure 8).

A further series is described as follows: Chimney test in mice. The class given is in vivo, mouse. The conditions noted are these: mouse, in vivo; ip, log-probit method. The method, then:
(§4) The chimney test was performed as previously described. The mice were trained before the test, and only those animals able to get out of the chimney within 1 min, were used at the experimental stage. The selected mice were placed in a 25 cm long and 2.5 cm in diameter horizontally located tube, which was reversed so that the mice could leave it only by climbing up backward until they reached the other end. Motor impairment was indicated by the inability of the mice to perform the test within 60 s. The number of animals unable to climb backward within 60 s was recorded, and TD50 values were calculated.

A further series deals with mice. Kind of series: Chimney test in mice. The class given is in vivo, mouse. The method, then: as §4
In series [2] the target is T3, human serotonin 5-HT1A receptor (Homo sapiens, UniProt P08908).
T3 construct: expressed in transfected cells; host or cells: CHO-K1 (cryopreserved, whole cells)
T3 sequence (P08908 1-422): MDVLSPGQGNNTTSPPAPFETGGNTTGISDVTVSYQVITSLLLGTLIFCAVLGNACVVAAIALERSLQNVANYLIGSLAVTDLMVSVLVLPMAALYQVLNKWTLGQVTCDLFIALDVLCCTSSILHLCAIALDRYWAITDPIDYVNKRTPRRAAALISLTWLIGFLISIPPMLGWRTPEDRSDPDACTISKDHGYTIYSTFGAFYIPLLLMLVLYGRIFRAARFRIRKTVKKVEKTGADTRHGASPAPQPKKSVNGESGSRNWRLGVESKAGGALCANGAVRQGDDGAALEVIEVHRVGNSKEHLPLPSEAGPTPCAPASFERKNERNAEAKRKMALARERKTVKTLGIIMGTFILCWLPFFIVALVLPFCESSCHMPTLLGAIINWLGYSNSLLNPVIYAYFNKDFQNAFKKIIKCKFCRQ
Nature of the series: Functional assay, inhibition of cAMP production, CHO-K1 cells. The class given is cell-based. The method, then: Tested and reference compounds were dissolved in dimethyl sulfoxide (DMSO) at a concentration of 10 mM. Serial dilutions were prepared in 96-well microplate in assay buffer, and 8 to 10 concentrations were tested. […] Thawed cells were resuspended in stimulation buffer (HBSS, 5 mM HEPES, […], and 0.1% BSA at pH 7.4) at 2 × 10^5 cells/mL. The 10 µL of cell suspension was added to tested compounds with 10 µM forskolin. Samples were loaded onto a white opaque half area 96-well microplate. […] The agonist and antagonist were added simultaneously. Cell stimulation was performed for 40 min at room temperature. After incubation, cAMP measurements were performed with homogeneous TR-FRET immunoassay using the LANCE Ultra cAMP kit (PerkinElmer, Waltham, MA, USA). Ten microliters of EucAMP Tracer Working Solution and 10 µl of ULight-anti-cAMP Tracer Working Solution were added, mixed, and incubated for 1 h. The TR-FRET signal was read on an EnVision microplate reader (PerkinElmer, USA). IC50 and EC50 were determined by nonlinear regression analysis using GraphPad Prism 6.0 software.
A general note: Cyclic AMP is a second messenger, typically raised through Gs and lowered through Gi signalling.

A further series has as its target dopaminergic D2 receptor (Homo sapiens, UniProt P14416). Nature of the series: Radioligand binding, [3H]-methylspiperon, CHO-K1 cells. As to conditions: mean ± SEM, read-out: Dopaminergic pKi D2 (converted). The method, then: as §2
Series [3] has as its system corticosterone-treated mice. Nature of the series: Locomotor activity in corticosterone-treated mice. It is filed as in vivo, mouse. As to conditions: 4 min. As for the experimental part: The locomotor activity of mice was measured as previously described. We used photoresistor actometers (Ugo Basile, Italy) connected to a counter for the recording of light-beam interruptions. Mice were placed individually in cages for 30 min, and the number of crossings of the light beams was recorded as the locomotor activity for 4 min.
as §3

Another series addresses T4, human 5-HT6 receptor (Homo sapiens, UniProt P50406).
T4 construct: expressed in transfected cells; host or cells: CHO-K1 (membranes)
Kind of series: Radioligand binding, [3H]-LSD, CHO-K1 membranes. As to conditions: CHO-K1 cells, mean ± SEM, read-out: Serotonergic pKi 5-HT6 (converted). As for the experimental part:
as §1, §2

Molecules are shown by their SMILES. Where two headings read alike, the source gives them in different places.

What is called Kb is the equilibrium dissociation constant of an antagonist, usually derived from a functional assay. As usually defined, the Emax is the maximal effect, on the per cent scale that the assay sets.

T4 sequence (P50406 whole entry): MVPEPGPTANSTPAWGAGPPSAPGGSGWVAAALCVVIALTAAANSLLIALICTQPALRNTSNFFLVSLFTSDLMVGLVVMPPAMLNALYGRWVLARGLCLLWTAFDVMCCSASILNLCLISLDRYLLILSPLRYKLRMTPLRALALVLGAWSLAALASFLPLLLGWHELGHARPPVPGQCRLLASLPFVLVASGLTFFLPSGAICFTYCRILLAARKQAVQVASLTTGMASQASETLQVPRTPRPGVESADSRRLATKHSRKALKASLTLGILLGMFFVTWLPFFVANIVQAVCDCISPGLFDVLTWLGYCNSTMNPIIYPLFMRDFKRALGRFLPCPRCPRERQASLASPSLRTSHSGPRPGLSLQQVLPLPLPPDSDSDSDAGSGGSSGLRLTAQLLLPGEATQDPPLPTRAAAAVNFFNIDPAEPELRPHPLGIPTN
T1 sequence (P28223 whole entry): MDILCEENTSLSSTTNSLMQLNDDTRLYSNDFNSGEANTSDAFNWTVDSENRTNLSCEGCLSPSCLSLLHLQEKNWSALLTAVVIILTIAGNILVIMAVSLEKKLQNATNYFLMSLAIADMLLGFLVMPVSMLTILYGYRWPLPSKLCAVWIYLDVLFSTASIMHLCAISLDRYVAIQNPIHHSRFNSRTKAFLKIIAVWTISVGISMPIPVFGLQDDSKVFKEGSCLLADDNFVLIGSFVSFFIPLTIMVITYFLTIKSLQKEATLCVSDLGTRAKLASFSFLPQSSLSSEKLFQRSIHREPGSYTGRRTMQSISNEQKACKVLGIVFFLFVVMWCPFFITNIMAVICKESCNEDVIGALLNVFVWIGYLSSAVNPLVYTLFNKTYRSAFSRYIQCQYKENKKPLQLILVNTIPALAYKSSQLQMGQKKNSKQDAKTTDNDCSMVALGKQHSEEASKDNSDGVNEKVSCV
dopaminergic D2 receptor, sequence (P14416 whole entry): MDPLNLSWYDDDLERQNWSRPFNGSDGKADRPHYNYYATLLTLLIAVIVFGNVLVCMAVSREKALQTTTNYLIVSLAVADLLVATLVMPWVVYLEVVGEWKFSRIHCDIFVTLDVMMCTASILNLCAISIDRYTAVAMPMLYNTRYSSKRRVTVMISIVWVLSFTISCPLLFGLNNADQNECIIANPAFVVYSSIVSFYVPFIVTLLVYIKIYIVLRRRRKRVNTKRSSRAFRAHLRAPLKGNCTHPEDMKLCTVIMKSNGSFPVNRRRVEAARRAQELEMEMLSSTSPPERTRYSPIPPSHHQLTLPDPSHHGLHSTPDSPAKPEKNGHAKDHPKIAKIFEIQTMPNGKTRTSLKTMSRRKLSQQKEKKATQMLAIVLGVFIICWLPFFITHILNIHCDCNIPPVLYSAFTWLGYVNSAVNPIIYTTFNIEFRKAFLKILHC
T2 sequence (P34969 whole entry): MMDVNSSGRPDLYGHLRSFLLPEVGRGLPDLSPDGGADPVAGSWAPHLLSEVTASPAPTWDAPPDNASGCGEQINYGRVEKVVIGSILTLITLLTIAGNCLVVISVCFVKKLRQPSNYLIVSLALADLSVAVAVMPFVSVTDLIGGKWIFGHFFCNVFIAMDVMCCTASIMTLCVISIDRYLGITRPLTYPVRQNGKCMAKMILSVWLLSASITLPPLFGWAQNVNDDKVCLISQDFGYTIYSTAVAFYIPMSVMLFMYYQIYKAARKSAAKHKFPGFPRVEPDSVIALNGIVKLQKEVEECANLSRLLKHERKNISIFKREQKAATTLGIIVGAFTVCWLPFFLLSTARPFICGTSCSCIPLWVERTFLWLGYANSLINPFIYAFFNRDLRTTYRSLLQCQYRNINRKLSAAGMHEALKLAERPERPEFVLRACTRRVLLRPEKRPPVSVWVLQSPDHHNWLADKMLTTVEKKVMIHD

As for `CCC(CN1CCN(c2ccccc2OC)CC1)NCCCOc1c(C)cccc1C.Cl.Cl` (stereo not drawn) [HBK-10, N-(3-(2,6-dimethylphenoxy)propyl)-1-(4-(2-methoxyphenyl)piperazin-1-yl)butan-2-amine dihydrochloride], the Ki on human 5-HT2A receptor was 191 nM; on human 5-HT7 receptor, 6.31 µM; on dopaminergic D2 receptor, 50.1 nM; on human 5-HT6 receptor, 3.72 µM. For the same compound, the “Decrease of immobility in the forced swim test in corticosterone-treated mice” value in series [1] (0.625 mg/kg ip) amounted to 30.9%; in [1] (1.25 mg/kg ip), 39.5%. Besides, the “Active dose in corticosterone model, fold lower than fluoxetine” value in series [1] (chronic administration) was found to be 24 fold. Also, the “Active dose in corticosterone model, fold lower than HBK-15” value in series [1] (comparator data ref 21) is listed as 2 fold. In addition, the TD50 at 30 min in “Chimney test in mice” is 21.7 mg/kg. Besides, the “% of Animals That Did Not Climb out the Chimney” value worked out at 20% in the series on mice (10 mg/kg ip); 40% in the series with mice (20 mg/kg ip); 64% with mice (30 mg/kg ip); 87% in the series on mice (40 mg/kg ip); 90% in the series on mice (60 mg/kg ip). In addition, in series [2] (5-HT1A, antagonist mode), the “Kb, fold lower compared with NAN-190” value is listed as 10 fold. The antagonist dissociation constant (Kb) in [2] (5-HT1A, antagonist mode, Cheng–Prusoff equation) was found to be 64 nM. For the same compound, the Emax was determined as 2% in series [2] (CHO-K1, read-out: Emax %, agonist mode) and 0% in series [2] (CHO-K1, read-out: Emax %, antagonist mode). The IC50 in [2] (read-out: pIC50 ± SEM, antagonist mode (converted)) is 191 nM. Moreover, the “Number of Crossings ± SEM” value in series [3] (0.625 mg/kg ip chronic) turned out to be 431.1 ± 47.92; in series [3] (1.25 mg/kg ip chronic), 453.9 ± 41.27.

The values are drawn from article PMC8400343, “Synthesis and Evaluation of the Antidepressant-like Properties of HBK-10, a Novel 2-Methoxyphenylpiperazine Derivative Targeting the 5-HT1A and D2 Receptors” (Pharmaceuticals, 2021).
